Test [1] relates to complement system. As to the kind of experiment: Preliminary ELISA-based complement system inhibition assays, human serum. It counts as biochemical. As to conditions: preliminary data. The text has this:
For some of the peptides studied here, W1, W13, R1, and S-1S0, there is experimental evidence for inhibitory activity against hC3. […] The structural rationale was that the positively charged backbone amino group was disrupting the hydrophobic cluster at the termini (spanning residues 11-C2-V3-V4/C12/T13 of native compstatin), which was deemed necessary for binding and activity before the availability of the structure of the C3c-W4A9 complex, and that upon removal of the positive charge by acetylation the hydrophobic cluster was fortified and contributed to the 3-fold increase in activity. […] The peptide with the diserine extension is expected to be active, as the diserine was present at the N-terminus of the original 32-amino acid peptide that was identified in the phage-display and a subsequent study.
A general note: ELISA stands for enzyme-linked immunosorbent assay.

The subject of test [2] is complement activation. As to conditions: alternative pathway-mediated erythrocyte lysis; cited from earlier work.

Structures are written as SMILES. pIC50: −log10 of the molar value. Bridge positions count the residues as written; N and C are the ends. Peptide text beside a SMILES is read from it.

The term pIC50 denotes the IC50 on a negative log10 scale, so that one unit is a factor of ten.

As for `CC(=O)N[C@@H](CCCNC(=N)N)C(=O)N[C@H]1CSSC[C@@H](C(=O)N[C@H](C(N)=O)[C@@H](C)O)NC(=O)[C@H](CCCNC(=N)N)NC(=O)[C@H](Cc2c[nH]cn2)NC(=O)[C@H](C)NC(=O)CNC(=O)[C@H](Cc2c[nH]c3ccccc23)NC(=O)[C@H](CC(=O)O)NC(=O)[C@H](CCC(N)=O)NC(=O)[C@H](Cc2c[nH]c3ccccc23)NC(=O)[C@H](C(C)C)NC1=O` [Peptide I, Ac- RCV WQDWGA HRCT-NH2] (Ac-RCVWQDWGAHRCT-NH2; disulfide 2-12), the “inhibitory activity in human serum (in words)” value in test [1] was “higher than those of native compstatin and slightly lower than those of the W4A9 analog”. In the case of `CC[C@H](C)[C@H](N)C(=O)N[C@H]1CSSC[C@@H](C(=O)N[C@H](C(N)=O)[C@@H](C)O)NC(=O)[C@H](CCCN=C(N)N)NC(=O)[C@H](Cc2cnc[nH]2)NC(=O)[C@H](Cc2cnc[nH]2)NC(=O)CNC(=O)[C@H](Cc2c[nH]c3ccccc23)NC(=O)[C@H](CC(=O)O)NC(=O)[C@H](CCC(N)=O)NC(=O)[C@H](C(C)C)NC(=O)[C@H](C(C)C)NC1=O` [Parent, ICV VQDWGH HRCT-NH2, reference compound], the pIC50 in test [2] is 4.92.

These data come from patent US9512180B2, “Compstatin analogs” (THE REGENTS OF THE UNIVERSITY OF CALIFORNIA, priority 2012, dated 2016).
